Reference: patent US20110230478A1 (Bayer ScienceCrop AG, priority 2008, published 2011)
Read-outs that look alike come from different tables or passages of the source.

Test: logP by HPLC on reversed-phase columns (C 18), EEC Directive 79/831 Annex V.A8
Assay type: physicochemical
Conditions: for chromatographic logP: reversed-phase HPLC column (C 18)
[1] = method marker [b], footnote not given, compound 68 value matches logP (pH 2.3)
[2] = values marked [b], footnote not given
[3] = values marked [c], footnote not given

## CCCNc1nc(Nc2ccccc2)ncc1C#N [Example 68, 2-(Phenylamino)-4-(propylamino)pyrimidine-5-carbonitrile]
pH 2.3, method marker [b], footnote not given, compound 68 value matches logP (pH 2.3), read-out: logP
  chromatographic logP: 2.68
pH 2.3, pH 2.3, 0.1% aqueous phosphoric acid and acetonitrile, read-out: logP [a]
  chromatographic logP: 2.68

## COCC(C)Nc1nc(Nc2ccc(F)cc2)ncc1Cl (stereo not drawn) [Example 69]
[1]
  logP: 1.8[b]

## COCC(C)Nc1nc(Nc2cccc(Cl)c2)ncc1Br (stereo not drawn) [Example 71]
[1]
  logP: 2.82[b]

## COCC(C)Nc1nc(Nc2cccc(S(=O)(=O)N(C)C)c2)ncc1Br (stereo not drawn) [Example 72]
[1]
  logP: 2.37[b]

## COCC(C)Nc1nc(Nc2ccc(F)cc2F)ncc1Br (stereo not drawn) [Example 73]
[1]
  logP: 2.16[b]

## COCC(C)Nc1nc(Nc2ccc3c(c2)OC(F)(F)C(F)(F)O3)ncc1Br (stereo not drawn) [Example 75]
[1]
  logP: 4.08[b]

## COCC(C)Nc1nc(Nc2ccc(Cl)c(S(C)(=O)=O)c2)ncc1Br (stereo not drawn) [Example 76]
[1]
  logP: 2.23[b]

## COCC(C)Nc1nc(Nc2cccc(SC)c2)ncc1Br (stereo not drawn) [Example 77]
[1]
  logP: 2.3[b]

## CCC(=O)c1ccc(Nc2ncc(Br)c(NC(C)COC)n2)cc1 (stereo not drawn) [Example 78]
[1]
  logP: 2.57[b]

## COCC(C)Nc1nc(Nc2ccc3c(c2)CCN3C(C)=O)ncc1Br (stereo not drawn) [Example 79]
[1]
  logP: 1.55[b]

## COCC(C)Nc1nc(Nc2cccc(NC(C)=O)c2)ncc1Br (stereo not drawn) [Example 80]
[1]
  logP: 1.11[b]

## COCC(C)Nc1nc(Nc2ccc(F)cc2F)ncc1Cl (stereo not drawn) [Example 81]
[1]
  logP: 2.02[b]

## COCC(C)Nc1nc(Nc2ccc(C(F)(F)F)cc2)ncc1Cl (stereo not drawn) [Example 82]
[1]
  logP: 3.22[b]

## COCC(C)Nc1nc(Nc2cccc(C#N)c2)ncc1Cl (stereo not drawn) [Example 83]
[1]
  logP: 2.11[b]

## COCC(C)Nc1nc(Nc2ccc(OC)c(OC)c2)ncc1Cl (stereo not drawn) [Example 84]
[1]
  logP: 1.46[b]

## COCC(C)Nc1nc(Nc2cccc(OC)c2)ncc1Cl (stereo not drawn) [Example 85]
[1]
  logP: 1.78[b]

## COCC(C)Nc1nc(Nc2ccc(OC)cc2)ncc1Cl (stereo not drawn) [Example 86]
[1]
  logP: 1.56[b]

## COCC(C)Nc1nc(Nc2cccc(OC(F)(F)F)c2)ncc1Cl (stereo not drawn) [Example 87]
[1]
  logP: 3.14[b]

## COCC(C)Nc1nc(Nc2ccc(SC(F)(F)F)cc2)ncc1Cl (stereo not drawn) [Example 88]
[1]
  logP: 3.81[b]

## COCC(C)Nc1nc(Nc2ccc(SC)c(Cl)c2)ncc1Cl (stereo not drawn) [Example 89]
[1]
  logP: 2.77[b]

## COCC(C)Nc1nc(Nc2ccc(-c3cscn3)cc2)ncc1Cl (stereo not drawn) [Example 90]
[1]
  logP: 1.87[b]

## COCC(C)Nc1nc(Nc2ccc(CC(=O)OC)cc2)ncc1Cl (stereo not drawn) [Example 91]
[1]
  logP: 1.71[b]

## COCC(C)Nc1nc(Nc2ccc3c(c2)OC(F)(F)C(F)(F)O3)ncc1Cl (stereo not drawn) [Example 92]
[1]
  logP: 3.85[b]

## COCC(C)Nc1nc(Nc2cccc(CC(=O)OC)c2)ncc1Cl (stereo not drawn) [Example 93]
[1]
  logP: 1.75[b]

## COCC(C)Nc1nc(Nc2cc(Cl)cc(Cl)c2)ncc1Cl (stereo not drawn) [Example 94]
[1]
  logP: 4.08[b]

## COCC(C)Nc1nc(Nc2ccc(C(=O)OC)c(Cl)c2)ncc1Cl (stereo not drawn) [Example 95]
[1]
  logP: 2.95[b]

## CCOc1cccc(Nc2ncc(Cl)c(NC(C)COC)n2)c1 (stereo not drawn) [Example 96]
[1]
  logP: 2.04[b]

## COCC(C)Nc1nc(Nc2ccc3c(c2)OCO3)ncc1Cl (stereo not drawn) [Example 97]
[1]
  logP: 1.56[b]

## COCC(C)Nc1nc(Nc2ccc(OC(F)(F)F)c(Cl)c2)ncc1Cl (stereo not drawn) [Example 98]
[1]
  logP: 3.99[b]

## COCC(C)Nc1nc(Nc2ccc(N(C)C(C)=O)cc2)ncc1Cl (stereo not drawn) [Example 99]
[1]
  logP: 1.48[b]

## COCC(C)Nc1nc(Nc2ccc(Cl)c(S(C)(=O)=O)c2)ncc1Cl (stereo not drawn) [Example 100]
[1]
  logP: 2.09[b]

## COCC(C)Nc1nc(Nc2cccc(SC)c2)ncc1Cl (stereo not drawn) [Example 101]
[1]
  logP: 2.13[b]

## COCC(C)Nc1nc(Nc2ccc(C(=O)CC#N)cc2)ncc1Cl (stereo not drawn) [Example 102]
[1]
  logP: 2.09[b]

## COCC(C)Nc1nc(Nc2ccc3c(c2)CCC3=O)ncc1Cl (stereo not drawn) [Example 103]
[1]
  logP: 1.97[b]

## CCC(=O)c1ccc(Nc2ncc(Cl)c(NC(C)COC)n2)cc1 (stereo not drawn) [Example 104]
[1]
  logP: 2.36[b]

## COCC(C)Nc1nc(Nc2ccc3sc(C)nc3c2)ncc1Cl (stereo not drawn) [Example 105]
[1]
  logP: 1.75[b]

## COCC(C)Nc1nc(Nc2ccc3oc(=O)sc3c2)ncc1Cl (stereo not drawn) [Example 106]
[1]
  logP: 2.11[b]

## COCC(C)Nc1nc(Nc2ccc3c(c2)CCN3C(C)=O)ncc1Cl (stereo not drawn) [Example 107]
[1]
  logP: 1.48[b]

## COCC(C)Nc1nc(Nc2cccc(C#N)c2)ncc1Br (stereo not drawn) [Example 108]
[1]
  logP: 2.26[b]

## COCC(C)Nc1nc(Nc2ccc(OC)cc2)ncc1Br (stereo not drawn) [Example 110]
[1]
  logP: 1.63[b]

## COCC(C)Nc1nc(Nc2ccc(SC)c(Cl)c2)ncc1Br (stereo not drawn) [Example 111]
[1]
  logP: 2.99[b]

## COCC(C)Nc1nc(Nc2ccc(-c3cscn3)cc2)ncc1Br (stereo not drawn) [Example 112]
[1]
  logP: 1.99[b]

## COCC(C)Nc1nc(Nc2cccc(CC(=O)OC)c2)ncc1Br (stereo not drawn) [Example 113]
[1]
  logP: 1.87[b]

## COCC(C)Nc1nc(Nc2cc(Cl)cc(Cl)c2)ncc1Br (stereo not drawn) [Example 114]
[1]
  logP: 4.32[b]

## COCC(C)Nc1nc(Nc2ccc(C(=O)OC)c(Cl)c2)ncc1Br (stereo not drawn) [Example 115]
[1]
  logP: 3.14[b]

## CCOc1cccc(Nc2ncc(Br)c(NC(C)COC)n2)c1 (stereo not drawn) [Example 116]
[1]
  logP: 2.18[b]

## COCC(C)Nc1nc(Nc2ccc3c(c2)OCO3)ncc1Br (stereo not drawn) [Example 117]
[1]
  logP: 1.64[b]

## COCC(C)Nc1nc(Nc2ccc(OC(F)(F)F)c(Cl)c2)ncc1Br (stereo not drawn) [Example 118]
[1]
  logP: 4.23[b]

## COCC(C)Nc1nc(Nc2ccc(N(C)C(C)=O)cc2)ncc1Br (stereo not drawn) [Example 119]
[1]
  logP: 1.56[b]

## COCC(C)Nc1nc(Nc2cccc(S(=O)(=O)N3CCOCC3)c2)ncc1Br (stereo not drawn) [Example 120]
[1]
  logP: 2.16[b]

## COCC(C)Nc1nc(Nc2ccc(C(=O)CC#N)cc2)ncc1Br (stereo not drawn) [Example 121]
[2]
  logP: 2.23[b]

## COCC(C)Nc1nc(Nc2ccc3sc(C)nc3c2)ncc1Br (stereo not drawn) [Example 122]
[2]
  logP: 1.87[b]

## COCC(C)Nc1nc(Nc2cccc(NC(=O)C(C)(C)C)c2)ncc1Cl (stereo not drawn) [Example 147]
[2]
  logP: 1.9[b]

## COCC(C)Nc1nc(Nc2ccc(C(=O)N(C)C)cc2)ncc1Cl (stereo not drawn) [Example 148]
[2]
  logP: 1.51[b]

## COCC(C)Nc1nc(Nc2ccc(SC)cc2)ncc1Cl (stereo not drawn) [Example 149]
[2]
  logP: 2.06[b]

## COCC(C)Nc1nc(Nc2cccc(S(=O)(=O)N3CCCCC3)c2)ncc1Cl (stereo not drawn) [Example 150]
[2]
  logP: 2.77[b]

## COCC(C)Nc1nc(Nc2ccc(CC(=O)C(C)(C)C)cc2)ncc1Cl (stereo not drawn) [Example 151]
[2]
  logP: 2.26[b]

## COCC(C)Nc1nc(Nc2cccc(NC(=O)OC)c2)ncc1Cl (stereo not drawn) [Example 153]
[2]
  logP: 1.59[b]

## COCC(C)Nc1nc(Nc2ccc(C)c(SC)c2)ncc1Cl (stereo not drawn) [Example 154]
[2]
  logP: 2.33[b]

## COCC(C)Nc1nc(Nc2cccc(C(=O)N(C)C)c2)ncc1Cl (stereo not drawn) [Example 155]
[2]
  logP: 1.47[b]

## COCC(C)Nc1nc(Nc2cccc(NC(=O)C(C)C)c2)ncc1Cl (stereo not drawn) [Example 156]
[2]
  logP: 1.68[b]

## COCC(C)Nc1nc(Nc2cccc(C(=O)NC(C)(C)C)c2)ncc1Cl (stereo not drawn) [Example 157]
[2]
  logP: 1.99[b]

## COCC(C)Nc1nc(Nc2ccc(OC(F)(F)C(F)F)cc2)ncc1Cl (stereo not drawn) [Example 158]
[2]
  logP: 2.61[b]

## COCC(C)Nc1nc(Nc2ccc(O)c(C(C)=O)c2)ncc1Cl (stereo not drawn) [Example 159]
[2]
  logP: 1.68[b]

## COCC(C)Nc1nc(Nc2ccc(O)c(F)c2)ncc1Cl (stereo not drawn) [Example 160]
[2]
  logP: 1.34[b]

## COCC(C)Nc1nc(Nc2ccc(N(C(C)=O)C3CCCCC3)cc2)ncc1Cl (stereo not drawn) [Example 161]
[2]
  logP: 2.33[b]

## COCC(C)Nc1nc(Nc2cccc(NC(=O)C3(C)CC3)c2)ncc1Cl (stereo not drawn) [Example 162]
[2]
  logP: 1.78[b]

## COCC(C)Nc1nc(Nc2ccc(N(C)C(=O)C(C)(C)C)cc2)ncc1Cl (stereo not drawn) [Example 163]
[2]
  logP: 1.87[b]

## COCC(C)Nc1nc(Nc2ccc(N(C(=O)C(F)(F)F)C3CC3)cc2)ncc1Cl (stereo not drawn) [Example 164]
[2]
  logP: 2.55[b]

## COCC(C)Nc1nc(Nc2cccc(NC(=O)Oc3ccccc3)c2)ncc1Cl (stereo not drawn) [Example 165]
[2]
  logP: 2.23[b]

## COCC(C)Nc1nc(Nc2cccc(NC(=O)C(C)(C)CF)c2)ncc1Cl (stereo not drawn) [Example 166]
[2]
  logP: 1.83[b]

## COCC(C)Nc1nc(Nc2ccc(C)c(NC(C)=O)c2)ncc1Cl (stereo not drawn) [Example 167]
[2]
  logP: 1.37[b]

## COCC(C)Nc1nc(Nc2cccc(NC(=O)c3ccco3)c2)ncc1Cl (stereo not drawn) [Example 168]
[2]
  logP: 1.68[b]

## COCC(C)Nc1nc(Nc2ccc(NC(=O)C(C)C)cc2)ncc1Cl (stereo not drawn) [Example 169]
[2]
  logP: 1.59[b]

## COCC(C)Nc1nc(Nc2ccc(O)c(C)c2)ncc1Cl (stereo not drawn) [Example 171]
[2]
  logP: 1.39[b]

## COCC(C)Nc1nc(Nc2ccc(SC(F)F)cc2)ncc1Cl (stereo not drawn) [Example 172]
[2]
  logP: 2.8[b]

## CSCC(C)(C)Nc1nc(Nc2ccccc2)ncc1Cl [Example 174]
Values marked [a], pH 2.3
  logP: 2.68[a];
[3]
  logP: 4.18[c]

## CSCC(C)(C)Nc1nc(Nc2cccc(SC)c2)ncc1Cl [Example 175]
Values marked [a], pH 2.3
  logP: 3.48[a];
[3]
  logP: 4.59[c]

## COCC(Nc1nc(Nc2ccccc2)ncc1Cl)C(C)C (stereo not drawn) [Example 176]
[2]
  logP: 2.33[b]

## FC(F)(F)OCCNc1nc(Nc2ccccc2)ncc1Cl [Example 177]
[2]
  logP: 2.26[b]

## CN(C)c1nc(Nc2ccccc2)ncc1Br [Example 178]
[2]
  logP: 1.86[b]

## CCC(C)N(C)c1nc(Nc2cccc(C(C)=O)c2)ncc1Cl (stereo not drawn) [Example 179]
Values marked [a], pH 2.3
  logP: 2.88[a]

## CC(C)Nc1nc(Nc2cccc(C#N)c2)ncc1Cl [Example 180]
[2]
  logP: 2.21[b]

## COc1cc(Nc2ncc(Cl)c(NC(C)C)n2)ccc1NC(C)=O [Example 181]
[2]
  logP: 1.44[b]

## COc1cccc(Nc2ncc(Cl)c(NC(C)C)n2)c1 [Example 182]
[2]
  logP: 1.86[b]

## COc1ccc(Nc2ncc(Cl)c(NC(C)C)n2)cc1 [Example 183]
[2]
  logP: 1.63[b]

## CC(C)Nc1nc(Nc2ccc(C#N)cc2)ncc1Cl [Example 184]
[2]
  logP: 2.46[b]

## CC(C)Nc1nc(Nc2cccc(OC(F)(F)F)c2)ncc1Cl [Example 185]
[2]
  logP: 3.26[b]

## CC(C)Nc1nc(Nc2ccc(S(C)(=O)=O)cc2)ncc1Cl [Example 186]
[2]
  logP: 1.86[b]

## CSc1ccc(Nc2ncc(Cl)c(NC(C)C)n2)cc1Cl [Example 187]
[2]
  logP: 2.91[b]
